These results are taken from patent US10722480B2, “Agent for controlling cells constituting cancer microenvironment or inflammatory microenvironment” (The University of Tokyo, priority 2015, dated 2020).

Read-outs that look alike come from different tables or passages of the source.

Data set [1] relates to B16F10 melanoma cells. The experiment in a line: Lung metastasis model (B16F10). The format is in vivo, mouse. The following applies: B16F10 via tail vein, Day 9 post tumor administration. As to the method: To provide a lung metastasis model, 1×10^6 B16F10 melanoma cells were suspended in 200 μL of PBS, and administered from the tail vein of each of wild-type C57BL/6 mice. Administration of the inhibitor was carried out one day before, 30 minutes before, and one day after the tumor administration. To provide a control, DMSO and a pyrimidine fluoride anticancer drug 5-FU were administered. The mice were euthanized on Day 9 post tumor administration, and PBS was perfused from the left ventricle, followed by isolation of lungs. Visible lung metastatic lesions in the left lobe were counted.

Data set [2] concerns LLC tumor cells. The data set can be described thus: LDH cytotoxicity assay, LLC tumor cells. The format is cell-based. On the procedure:
(§1) The cytotoxicity of inhibitors was tested by using LDH Cytotoxicity Detection Kit (TaKaRa) according to the manufacturer's instructions. Briefly, tumor cells were cultured in the presence or absence of an agent (disulfiram or 5FU) for 72 hours, and the culture supernatant was then collected and tested for the concentration of lactate dehydrogenase released from damaged cells. For measurement of cell proliferation, cells were incubated in a plate well together with an inhibitor for 48 hours. During the last 30 minutes, WST-1 (Dojindo Laboratories) was added to the culture liquid, and the absorbance of each well was measured at 450 nm versus 650 nm reference using EnVision (PerkinElmer) to detect the formazan level.

The test system of data set [3] is B16F10 melanoma cells. The experiment in a line: LDH cytotoxicity assay, B16F10 melanoma cells. The format is cell-based. As to the method:
as §1

Data set [4] deals with B16F10 melanoma cells. The experiment in a line: WST-1 proliferation assay, B16F10 melanoma cells. The format is cell-based. Particulars: WST-1, 48 hours. On the procedure: as §1
(Tetrazolium dyes change colour on reduction, which living cells bring about.)

Data set [5] concerns the target T1, FROUNT-CCR2 interaction (Homo sapiens, UniProt Q9BW27).
T1 construct: made in house
T1 sequence (Q9BW27 500-656): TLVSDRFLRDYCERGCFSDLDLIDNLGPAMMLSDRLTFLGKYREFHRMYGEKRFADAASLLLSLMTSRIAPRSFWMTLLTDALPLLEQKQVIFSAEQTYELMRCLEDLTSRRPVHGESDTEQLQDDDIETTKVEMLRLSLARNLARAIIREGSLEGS
The data set can be described thus: HTRF binding inhibition assay, FROUNT-CCR2 interaction. As to the method: For the screening, a compound library containing 131,200 kinds of compounds dissolved in DMSO at a concentration of 10 mM or 2 mM (obtained from Open Innovation Center for Drug Discovery, the University of Tokyo) was used. The HTRF assay was carried out using a 384-well low-dose white microplate (Corning Coaster; catalog number 3676). In each well, 4 μL of a solution of 20 nM GST fusion FROUNT protein (a recombinant polypeptide prepared by fusing GST to aa 500-656 of SEQ ID NO:2), and DMSO or test compounds were mixed with a binding buffer (10 mM HEPES [pH 7.4], 0.2 M potassium fluoride, 10 mM NaCl, 0.1% Tween 20, and 0.5% bovine serum albumin [BSA]), and the plate was incubated at room temperature for 30 minutes. […]. After incubation at room temperature for 20 hours, the HTRF signal was measured at emission wavelengths of 620 nm and 665 nm using a multilabel counter EnVision (PerkinElmer).
(§2) By the same HTRF assay as described above, the abilities of disulfiram to inhibit the FROUNT-CCR2 interaction or the FROUNT-CCR5 interaction were investigated. As the CCR5 pro-C peptide, the 16 residues […] (SEQ ID NO:4) in the C-terminal region of CCR5 was used. As a control, the p53-MDM2 interaction (which is inhibited by an MDM-2-specific inhibitor Nutlin), which is also a helix peptide-protein interaction like the interaction between FROUNT and CCR2 or CCR5 but is not related thereto, was used.
(In general: In TR-FRET formats the signal depends on donor and acceptor labels being close together.)

Data set [6] concerns the target p53-MDM2 interaction (Homo sapiens, UniProt Q00987). The experiment in a line: HTRF binding inhibition assay, p53-MDM2 control interaction. The following applies: p53-MDM2 control interaction.
Excerpt: as §2

For data set [7], the target named is T2, aldehyde dehydrogenase (ALDH) (Rattus norvegicus, UniProt P11884).
T2 sequence (P11884 20-519): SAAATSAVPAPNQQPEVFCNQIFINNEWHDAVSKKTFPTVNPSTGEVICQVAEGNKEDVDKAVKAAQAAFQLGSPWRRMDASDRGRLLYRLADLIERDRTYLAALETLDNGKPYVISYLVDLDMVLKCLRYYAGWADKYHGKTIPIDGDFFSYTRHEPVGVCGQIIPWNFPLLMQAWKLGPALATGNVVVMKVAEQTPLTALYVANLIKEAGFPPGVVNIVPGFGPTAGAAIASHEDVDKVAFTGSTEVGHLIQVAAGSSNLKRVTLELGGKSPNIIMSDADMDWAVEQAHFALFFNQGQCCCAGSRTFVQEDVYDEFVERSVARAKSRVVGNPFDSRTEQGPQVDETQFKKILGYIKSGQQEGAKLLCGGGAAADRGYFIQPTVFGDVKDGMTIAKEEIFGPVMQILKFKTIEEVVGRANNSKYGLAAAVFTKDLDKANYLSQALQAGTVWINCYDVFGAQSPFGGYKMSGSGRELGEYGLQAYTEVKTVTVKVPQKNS
The following applies: Excerpt from Alcohol Clin Exp Res 1996.20.595-; read-out: ALDH inhibition; cited from earlier work.

Where [8] appears, read: HTRF, read-out: FROUNT inhibition (IC50 against FROUNT-CCR2).

p53-MDM2 interaction, sequence (Q00987 whole entry): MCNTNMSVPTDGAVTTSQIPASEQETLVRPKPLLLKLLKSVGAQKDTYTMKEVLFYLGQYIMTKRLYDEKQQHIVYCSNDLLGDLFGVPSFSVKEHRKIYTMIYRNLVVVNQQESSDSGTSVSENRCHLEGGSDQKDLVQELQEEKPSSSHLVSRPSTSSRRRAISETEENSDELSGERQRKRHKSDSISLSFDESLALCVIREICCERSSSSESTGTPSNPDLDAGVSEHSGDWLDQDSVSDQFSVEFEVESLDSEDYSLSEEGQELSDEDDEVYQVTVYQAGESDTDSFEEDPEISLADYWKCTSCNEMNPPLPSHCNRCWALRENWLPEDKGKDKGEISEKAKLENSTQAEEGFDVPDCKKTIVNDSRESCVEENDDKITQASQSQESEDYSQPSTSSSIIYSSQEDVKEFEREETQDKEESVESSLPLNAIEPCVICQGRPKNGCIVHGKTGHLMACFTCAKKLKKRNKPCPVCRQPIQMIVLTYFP

Regarding `O=c1[nH]cc(F)c(=O)[nH]1` [5FU], the “formation of lung metastatic lesions” value in data set [1] is listed as “did not reduce”. Moreover, in data set [2], the “cytotoxic activity on LLC tumor cells” value is recorded as “completely killed”. For the same molecule, the “cytotoxic activity on B16F10 melanoma cells” value in data set [3] is reported as “showed cytotoxic activity”. For the same molecule, the “growth-inhibiting action on B16F10 melanoma cells” value in data set [4] is given as “growth-inhibiting action”.

As for `CCN(CC)C(=S)S` [DDC, sodium diethyldithiocarbamate], in data set [5], the IC50 turned out to be 137 nM.

Consider `CCN(CC)C(=O)S(C)(=O)=O` [Me-DTC sulfone], for which the IC50 in data set [5] (setting [8]) is over 1000 nM; in data set [6] it was over 1000 nM; in data set [7] it was 530 nM.

Take `CCN(CC)C(=O)[S+](C)[O-]` (stereo not drawn) [Me-DTC sulfoxide]: the values for the IC50 in data set [5] (setting [8]), in data set [6] and in data set [7] were over 1000 nM, over 1000 nM and 930 nM, respectively.

On to `CCN(CC)C(=S)[S-].CCN(CC)C(=S)[S-].CCN(CC)C(=S)[S-].[Fe+3]` [iron (III) complex of DDC], for which the IC50 in data set [5] (setting [8]) worked out at 9.2 nM.
